Assay [1] has as its target MAT2A (Homo sapiens (Human), UniProt P31153). The assay can be described thus: Biochemical test: inhibition of MAT2A enzyme activity (phosphate detection, OD620). To be noted: MAT2A his-tag; 150 minutes enzymatic reaction. The text has this: Experimental principle: MAT2A can catalyze the conversion of L-methionine and ATP into SAM, inorganic phosphate, and inorganic diphosphate. By adding a chromogenic reagent to the enzymatic reaction system, the content of inorganic phosphates in a sample can be quantitatively detected, thereby characterizing the enzymatic activity of MAT2A.
Experimental material: Tris (Life Science #0497); BSA (Sigma #); MAT2A his-tag (BPS #71401-1); 384 well plate (Corning #3765); L-methionine (Admas #1100469); ATP (Sigma #A7699); MgCl2 (Sigma #M8266); KCl (Sigma #7447-40-7); Brij35 (Sigma #B4184); EDTA (Sigma #E1644)
1. 1×Assaybuffer (buffer composition: Tris, KCl, MgCl2, BSA, Brij35, and EDTA; the solvent was ultrapure water) was prepared. MAT2A his-tag enzyme solution (containing 1.3 μL of MAT2A enzyme and 998.7 μL of 1×Assaybuffer per 1000 μL) and substrate mixed solution (containing 5 μL of ATP, 1.3 μL of L-methionine, and 993.7 μL of 1×Assaybuffer per 1000 μL) were prepared using 1×AssayBuffer.
2. Preparation of compound concentration gradient: The test compound was tested with a starting concentration of 10 μM, and 10 equimolar concentrations were set according to a 3-fold dilution. Specifically, firstly, the compound was diluted into 10 different concentrations of series solutions in a 384 well plate (with final detection concentrations of 10, 3.33, 1.11, 0.37, 0.123, 0.041, 0.0137, 0.0046, 0.0015, and 0.0005 μM), and then 250 nL of the above series solutions was transferred to the 384 well reaction plate using an ultrasonic pipetting system Echo550 for later use. 250 nL of 100% DMSO was added into a negative control well and a positive control well, respectively. Double well test.
3. 15 μL of MAT2A his-tag enzyme solution was added into both the compound well and the positive control well; and 15 μL of 1×Assaybuffer was added into the negative control well.
4. The 384 well plate reaction plate was centrifuged at 1000 rpm for 60 seconds, shaken, mixed well, and incubated for 15 minutes. 10 μL of substrate mixed solution was added into each experimental well of the 384 well reaction plate to initiate the reaction.
5. The 384 well reaction plate was centrifuged at 1000 rpm for 60 seconds, shaken, mixed well, and incubated for 150 minutes.
6. 50 μL of enzyme reaction termination solution Biomol was added into all experimental wells of the 384 well reaction plate to terminate the reaction, centrifuged at 1000 rpm for 60 seconds, and incubated for 15 minutes. OD620 was read and data was processed.
Data analysis: the inhibition rate (%) of the compound was calculated and fitted to obtain the IC50 of the tested compound. Calculation method for compound inhibition rate: Compound inhibition rate (%)=(OD620_max−OD620_stample)/(OD620_max−OD620_min)×100, wherein OD620_stample was the absorbance value of the sample well; OD620 min was the absorbance value of the positive control well, indicating the reading of the wells without enzyme activity; and OD620_max was the absorbance value of the negative control well, indicating the reading of the well without compound inhibition.

Assay [2] has as its system KP-4 cells. The assay can be described thus: Human pancreatic cancer KP-4 cell activity inhibition test (CellTiter-Glo). Format: cell-based. To be noted: 5 days. As to the method:
Experimental principle: after co-incubating the MAT2A inhibitor to be tested with KP-4 cells for a period of time, a cell viability measurement method based on ATP content is used to characterize the effect of the tested compound on cell viability.
Experimental material: KP-4 cells (JCRB #JCRB0182); IMDM (Gibco 912440061); fetal bovine serum (EXCELL #FND500); penicillin-streptomycin (Gibco #15140-122); 0.25% Typsin-EDTA (Gibco #252(101-072); DMSO (Sigma #D2650); 96 well plate (Corning #3610); CellTiter-Glo (Promega #G7571)
1. KP-4 cells were cultured in IMDM culture medium containing 10% e fetal bovine serum and 1% penicillin-streptomycin at 37° C. and 5% CO2 in a cell culture incubator. Only cells in logarithmic growth phase were used for subsequent experiments.
2. The cells in logarithmic growth phase were inoculated into a 96 well plate, with a seeding quantity of 500 cells per well, and incubated overnight in a cell culture incubator at 37′C and 5% CO2.
3. The compound was dissolved with DMSO, diluted with culture medium to 10 different concentrations (approximately […]), 3333.3, 1111.1, 370, 123, 41.2, 13.7, 4.6, 1.5, and 0.5 nM) before adding it to the cell plate, and cultured at 37° C. and 5% CO2 for 5 days.
4. CellTiter-Glo reagent was added, and an enzyme-linked immunosorbent assay reader was used to detect cell viability.
Data analysis: the inhibition rate (%) of the compound was calculated and fitted to obtain the IC50 of the tested compound. Calculation method for compound inhibition rate: Compound inhibition rate (%)=(Signal_max−Signal_sample)/(Signal_max−Signal_min)×100, wherein Signal_sample was the sample well reading, indicating the cell activity of the compound inhibition well; Signal_min was the positive control well reading, indicating the background activity without cells; and Signal_max was the negative control well reading, indicating the cell activity of the well without compound inhibition.

Assay [3] relates to human B-cell lymphoma DOHH-2 cell subcutaneous xenograft tumor. The assay can be described thus: In vivo anti-tumor efficacy in the DOHH-2 cell subcutaneous xenograft tumor model. On the set-up: species or system mice. To be noted: 80 mg/kg, QD, intragastric; female CB-17 SCID mice, DOHH-2 xenograft. On the procedure:
The in vivo anti-tumor efficacy of compound 13 and AG-270 (MAT2A inhibitor,
were evaluated using a human B-cell lymphoma DOHH-2 cell subcutaneous xenograft tumor model.
The female CB-17 SCID mice used were purchased from Beijing Vital River Laboratory Animal Technology Co., Ltd. Tumor cell culture and subcutaneous inoculation: Human B-cell lymphoma DOHH-2 cells (DSMZ) were cultured in vitro in RPMI-1640 medium containing 10% fetal bovine serum and 1% […], and incubated in a 5% CO2 incubator at 37° C. When the required number of cells was reached, the cells were collected, and counted. 0.2 mL (10×10^6) of DOHH-2 cells (with matrix gel added, volume ratio of 1:1) were subcutaneously inoculated into the right back of each mouse. When the average tumor volume reached 100-150 mm^3, random grouping would begin, with 5 mice in each group. The administration group (compound 13 or compound AG-270) was performed intragastric administration twice a day (dosage shown in Table 3), while the negative control group was performed intragastric administration using the same volume of blank solvent per day.
The experimental indicator was to examine whether tumor growth was inhibited, delayed, or cured. The tumor diameter was measured twice a week using a vernier caliper. The formula for calculating tumor volume was: V=0.5a×b^2, wherein a and b indicated the long and short diameters of tumors, respectively.
The anti-tumor efficacy of the compound was evaluated using TGI (%) or relative tumor proliferation rate T/C (%).
TGI (%) reflects the tumor growth inhibition rate. Calculation of TGI (%). TGI (%)=[(1−(average tumor volume at the end of administration in the treatment group-average tumor volume at the beginning of administration in the treatment group))/(average tumor volume at the end of treatment in the negative control group-average tumor volume at the beginning of treatment in the negative control group)]×100%.
Relative tumor proliferation rate TIC (%): The calculation formula was as follows: T/C %=TRTV/CRTV×100% (TRTV: administration group RTV: CRTV: negative control group RTV). The calculation formula of the relative tumor volume (RTV) was RTV=Vt/V0, wherein V0 was the average tumor volume measured at the time of group administration (i.e. d0), Vt was the average tumor volume measured at a certain measurement, and TRTV and CRTV took the same day's data.

Chain of MAT2A (P31153 whole entry): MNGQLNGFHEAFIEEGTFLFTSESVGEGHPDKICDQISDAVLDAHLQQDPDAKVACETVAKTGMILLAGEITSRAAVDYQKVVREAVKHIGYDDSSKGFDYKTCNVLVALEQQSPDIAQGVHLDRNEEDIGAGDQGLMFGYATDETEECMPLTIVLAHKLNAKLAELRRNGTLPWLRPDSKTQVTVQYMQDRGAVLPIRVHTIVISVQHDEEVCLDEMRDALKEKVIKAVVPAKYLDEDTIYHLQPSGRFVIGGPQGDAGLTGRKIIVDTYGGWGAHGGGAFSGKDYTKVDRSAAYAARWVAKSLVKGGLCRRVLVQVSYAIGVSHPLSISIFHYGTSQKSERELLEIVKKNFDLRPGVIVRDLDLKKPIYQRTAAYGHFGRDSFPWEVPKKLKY

Regarding `CCOc1c(-c2ccc(OC(F)F)cc2)c(=O)n(-c2ccc3nn(CCO)cc3c2)c2[nH]ncc12` [Compound 20], the IC50 in assay [1] was determined as 9.8 nM; in assay [2], 224 nM.

For `Cn1cc2cc(-n3c(=O)c(-c4ccc(F)cc4)c(OCC4CC4)c4cn[nH]c43)ccc2n1` [Compound 51], the IC50 was 15.7 nM in assay [1] and 35.7 nM in assay [2] (Homo sapiens, 120 h).

For the molecule `CCOc1c(-c2ccc(Cl)cc2)c(=O)n(-c2ccc3nn(C4COC4)cc3c2)c2[nH]ncc12` [Compound 90], the IC50 in assay [1] came to 18.2 nM; in assay [2] (Homo sapiens, 120 h) it was 32 nM.

With `CCOc1c(-c2ccc(Cl)cc2)c(=O)n(-c2ccc3ncn(C)c3c2)c2[nH]ncc12` [Compound 33], the concentration for half-maximal inhibition (IC50) came out at 14.9 nM in assay [1] and 41.5 nM in assay [2] (Homo sapiens, 120 h).

As to `CCOc1c(-c2ccc(OC)cc2)c(=O)n(-c2ccc3nn(C)cc3c2)c2[nH]ncc12` [Compound 3], the IC50 in assay [1] worked out at 19.4 nM; in assay [2] (Homo sapiens, 120 h), 64 nM.

`CCNc1c(-c2ccc(OC(F)F)cc2)c(=O)n(-c2ccc3nn(C)cc3c2)c2[nH]ncc12` [Compound 9]: the 50% inhibitory concentration (IC50) in assay [1] worked out at 15.3 nM; in assay [2] (Homo sapiens, 120 h), 24.7 nM.

In the case of `COc1ccc(-c2c(Nc3ccccn3)[nH]c3c(C4=CCCCC4)c(-c4ccccc4)nn3c2=O)cc1` [AG-270, reference compound], in assay [3], the “T/C (%)” value stood at 22.32% and the “TGI (%)” value turned out to be 82.92%.

On to `CCNc1c(-c2ccc(Cl)cc2)c(=O)n(-c2ccc3nn(C)cc3c2)c2[nH]ncc12` [Compound 11], for which the IC50 in assay [1] stood at 14.2 nM; in assay [2] (Homo sapiens, 120 h), 4.9 nM.

With `CCOc1c(-c2ccc(Cl)cc2)c(=O)n(-c2ccc3nn(C)cc3n2)c2nn(C)cc12` [Compound 109], the IC50 in assay [1] was 23.2 nM; in assay [2] (Homo sapiens, 120 h) it was 128 nM.

For `CCOc1c(-c2ccc(Cl)cc2)c(=O)n(-c2ccc3nn(C)cc3c2)c2nn(C)cc12` [Compound 134], the IC50 in assay [1] was found to be 19.1 nM; in assay [2] (Homo sapiens, 120 h) it was 6.1 nM.

`CCOc1c(-c2ccc(Cl)cc2)c(=O)n(-c2ccc3nn(C)nc3n2)c2[nH]ncc12` [Compound 137]: the half-inhibitory concentration (IC50) in assay [1] is 16.8 nM; in assay [2] (Homo sapiens, 120 h), 427 nM.

In the case of `CCNc1c(-c2ccc(OC)cc2)c(=O)n(-c2ccc(OC)cc2)c2[nH]ncc12` [Compound 10], the half-maximal inhibitory concentration (IC50) is 20.6 nM in assay [1] and 618 nM in assay [2] (Homo sapiens, 120 h).

As to `CCOc1c(-c2ccc(C(F)(F)F)nc2)c(=O)n(-c2ccc3nn(C)cc3c2)c2[nH]ncc12` [Compound 46], the IC50 worked out at 15.3 nM in assay [1] and 60.9 nM in assay [2] (Homo sapiens, 120 h).

On to `COc1ccc(-c2c(OCC(F)(F)F)c3cn[nH]c3n(-c3ccc4nn(C)cc4c3)c2=O)cn1` [Compound 29], for which the IC50 in assay [1] amounted to 12.3 nM; in assay [2] (Homo sapiens, 120 h), 13.5 nM.

For `CCNc1c(-c2ccc(Cl)cc2)c(=O)n(-c2ccc3nn(C)cc3n2)c2[nH]ncc12` [Compound 105], the half-inhibitory concentration (IC50) came out at 19.6 nM in assay [1] and 59 nM in assay [2] (Homo sapiens, 120 h).

In the case of `CCOc1c(-c2ccc(OC)nc2)c(=O)n(-c2ccc3nn(C)cc3c2)c2[nH]ncc12` [Compound 126], the half-inhibitory concentration (IC50) came to 12.6 nM in assay [1] and 38 nM in assay [2] (Homo sapiens, 120 h).

As for `CCOc1c(-c2ccc(Cl)cc2)c(=O)n(-c2ccc3nn(C)c(C)c3c2)c2[nH]ncc12` [Compound 66], the IC50 in assay [1] was 13.7 nM; in assay [2] (Homo sapiens, 120 h), 12.7 nM.

Take `CCNc1c(-c2ccc(OC)cc2)c(=O)n(-c2ccc3nn(C)cc3c2)c2[nH]ncc12` [Compound 2]: the 50% inhibitory concentration (IC50) in assay [1] was determined as 17.5 nM; in assay [2] (Homo sapiens, 120 h) it was 70.8 nM.

For the molecule `CCOc1c(-c2ccc(OC(F)F)cc2)c(=O)n(-c2ccc3nn(C4CNC4)cc3c2)c2[nH]ncc12` [Compound 38], the IC50 amounted to 18.6 nM in assay [1] and 149 nM in assay [2] (Homo sapiens, 120 h).

Turning to `CCOc1c(-c2ccc(F)c(F)c2)c(=O)n(-c2ccc3nn(C)cc3c2)c2[nH]ncc12` [Compound 118], the 50% inhibitory concentration (IC50) in assay [1] was 16 nM; in assay [2] (Homo sapiens, 120 h), 136 nM.

Turning to `CCOc1c(-c2ccc(Cl)cc2)c(=O)n(-c2ccc3nn(C)cc3c2)c2cn[nH]c12` [Compound 55], the IC50 in assay [1] turned out to be 16.5 nM; in assay [2] (Homo sapiens, 120 h), 2.5 nM.

As to `CCOc1c(-c2ccc(Cl)cc2)c(=O)n(-c2ccc3nn(C)cc3n2)c2[nH]ncc12` [Compound 84], the half-inhibitory concentration (IC50) in assay [1] was found to be 20.7 nM; in assay [2] (Homo sapiens, 120 h), 25 nM.

Turning to `Cn1cc2nc(-n3c(=O)c(-c4ccc(Cl)cc4)c(NCC4CC4)c4cn[nH]c43)ccc2n1` [Compound 107], the IC50 was 16.7 nM in assay [1] and 73.2 nM in assay [2] (Homo sapiens, 120 h).

As to `COc1ccc(-c2c(NCC3CC3)c3cn[nH]c3n(-c3ccc4nn(C)cc4n3)c2=O)cc1` [Compound 5], the concentration for half-maximal inhibition (IC50) in assay [1] worked out at 17.7 nM; in assay [2] (Homo sapiens, 120 h) it was 28 nM.

Consider `Cn1cc2nc(-n3c(=O)c(-c4ccc(Cl)cc4)c(OCC(F)(F)F)c4cn[nH]c43)ccc2n1` [Compound 99], for which the IC50 in assay [1] stood at 16.1 nM; in assay [2] (Homo sapiens, 120 h), 87.8 nM.

Source of the values: patent US20260014125A1, “BICYCLIC-TYPE MAT2A INHIBITOR AND USE THEREOF” (HAIHE BIOPHARMA CO., LTD., priority 2022, published 2026).
